# Measured values as given in patent US20250059198A1, “BRM DEGRADING COMPOUNDS AND ASSOCIATED METHODS OF USE” (Arvinas Operations, Inc., priority 2021, published 2025).
# Target: T1, BRM (Homo sapiens, UniProt P51531)
# T1 construct: Western Blot Screen of BRM Degradation in SW1573 Cells; endogenous in cells; host or cells: SW1573 cells
# Experiment: BRM degradation (Dmax and DC50) in SW1573 cells, Western blot screen / In-Cell Western screen
# Format: cell-based
# Conditions: overnight (18-20 hours) treatment; for Dmax: read-out: Dmax (%)** (% degraded)
# Procedure, shortened: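 SW1573 cells were treated with compound for 18–20 h (final 0.1% DMSO). BRM was quantified either by Western blot of RIPA lysates or by fixed-cell In-Cell Western (LI-COR, 800/680 nm), each normalised to alpha-tubulin, giving Dmax and DC50.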
# T1 sequence (P51531 whole entry): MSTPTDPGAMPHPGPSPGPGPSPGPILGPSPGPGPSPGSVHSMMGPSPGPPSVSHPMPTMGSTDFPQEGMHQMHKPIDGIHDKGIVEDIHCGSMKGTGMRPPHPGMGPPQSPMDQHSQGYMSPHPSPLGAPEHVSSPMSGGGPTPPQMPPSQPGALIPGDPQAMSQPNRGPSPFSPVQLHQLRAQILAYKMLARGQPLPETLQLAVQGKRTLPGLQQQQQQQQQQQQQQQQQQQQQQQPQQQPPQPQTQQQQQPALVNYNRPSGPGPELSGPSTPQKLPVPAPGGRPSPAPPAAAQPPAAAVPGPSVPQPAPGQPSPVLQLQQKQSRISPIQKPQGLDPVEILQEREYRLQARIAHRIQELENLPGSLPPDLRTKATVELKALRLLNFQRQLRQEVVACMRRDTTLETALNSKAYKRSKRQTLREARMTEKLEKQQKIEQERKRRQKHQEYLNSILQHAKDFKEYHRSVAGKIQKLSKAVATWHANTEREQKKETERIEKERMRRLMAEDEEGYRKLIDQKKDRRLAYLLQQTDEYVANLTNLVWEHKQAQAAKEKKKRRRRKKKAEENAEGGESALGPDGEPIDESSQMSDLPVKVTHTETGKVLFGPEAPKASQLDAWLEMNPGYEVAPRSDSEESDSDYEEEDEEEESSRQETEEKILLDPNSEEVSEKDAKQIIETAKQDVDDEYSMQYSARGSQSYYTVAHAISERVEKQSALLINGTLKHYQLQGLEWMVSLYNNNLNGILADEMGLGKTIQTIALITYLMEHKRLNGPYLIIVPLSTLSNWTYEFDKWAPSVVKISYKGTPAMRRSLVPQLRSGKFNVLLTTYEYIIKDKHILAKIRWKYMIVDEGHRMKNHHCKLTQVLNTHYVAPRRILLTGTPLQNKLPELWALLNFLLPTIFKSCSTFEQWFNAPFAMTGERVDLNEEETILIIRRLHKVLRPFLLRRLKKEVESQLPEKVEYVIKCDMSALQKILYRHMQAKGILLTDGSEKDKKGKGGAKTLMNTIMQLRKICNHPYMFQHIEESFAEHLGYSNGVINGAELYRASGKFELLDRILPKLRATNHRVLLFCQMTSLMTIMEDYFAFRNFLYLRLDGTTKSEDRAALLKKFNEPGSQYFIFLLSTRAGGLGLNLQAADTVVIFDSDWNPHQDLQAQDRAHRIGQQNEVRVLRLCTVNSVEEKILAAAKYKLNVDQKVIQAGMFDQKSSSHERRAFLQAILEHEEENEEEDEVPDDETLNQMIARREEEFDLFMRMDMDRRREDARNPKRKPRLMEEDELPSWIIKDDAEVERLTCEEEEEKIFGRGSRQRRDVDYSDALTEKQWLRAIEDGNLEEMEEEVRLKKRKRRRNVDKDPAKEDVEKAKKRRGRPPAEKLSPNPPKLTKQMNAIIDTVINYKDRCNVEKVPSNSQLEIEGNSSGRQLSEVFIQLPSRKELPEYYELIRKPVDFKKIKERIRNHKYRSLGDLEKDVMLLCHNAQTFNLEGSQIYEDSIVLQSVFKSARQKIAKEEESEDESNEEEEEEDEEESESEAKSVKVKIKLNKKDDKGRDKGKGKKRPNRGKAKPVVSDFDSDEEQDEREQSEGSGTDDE
SMILES,DC50 [nM],Dmax [%]
"Cc1ncsc1-c1ccc([C@H](C)NC(=O)[C@@H]2C[C@@H](O)CN2C(=O)[C@@H](c2cc(N3CCC(CN4CCC(O[C@H]5C[C@H](N6CCC([C@H](C)c7cnn(-c8cc(-c9ccccc9O)nnc8N)c7)CC6)C5)CC4)CC3)no2)C(C)C)cc1 [Compound 75, (2S,4R)-4-hydroxy-N-[(1S)-1-[4-(4-methyl-1,3-thiazol-5-yl)phenyl]ethyl]-1-[(2R)-3-methyl-2-{3-[4-({4-[(1r,3r)-3-{4-[(1S)-1-{1-[3-amino-6-(2-hydroxyphenyl)pyridazin-4-yl]-1H-pyrazol-4-yl}ethyl]piperidin-1-yl}cyclobutoxy]piperidin-1-yl}methyl)piperidin-1-yl]-1,2-oxazol-5-yl}butanoyl]pyrrolidine-2-carboxamide]",< 2.5,> 75
"Cc1ncsc1-c1ccc([C@H](C)NC(=O)[C@@H]2C[C@@H](O)CN2C(=O)[C@@H](c2cc(N3CCC(CN4CCC(O[C@H]5C[C@H](C(=O)N6CCC(N7C8CCC7CN(c7cc(-c9ccccc9O)nnc7N)C8)CC6)C5)CC4)CC3)no2)C(C)C)cc1 [Compound 76, (2S,4R)-4-hydroxy-N-[(1S)-1-[4-(4-methyl-1,3-thiazol-5-yl)phenyl]ethyl]-1-[(2R)-3-methyl-2-{3-[4-({4-[(1r,3r)-3-(4-{3-[3-amino-6-(2-hydroxyphenyl)pyridazin-4-yl]-3,8-diazabicyclo[3.2.1]octan-8-yl}piperidine-1-carbonyl)cyclobutoxy]piperidin-1-yl}methyl)piperidin-1-yl]-1,2-oxazol-5-yl}butanoyl]pyrrolidine-2-carboxamide]",2.5 to 10,> 75
"Cc1ncsc1-c1ccc([C@H](C)NC(=O)[C@@H]2C[C@@H](O)CN2C(=O)[C@@H](c2cc(N3CCC(CN4CCC(O[C@H]5C[C@H](N6CCC(O[C@H]7CCN(c8cc(-c9ccccc9O)nnc8N)C7)CC6)C5)CC4)CC3)no2)C(C)C)cc1 [Compound 77, (2S,4R)-4-hydroxy-N-[(1S)-1-[4-(4-methyl-1,3-thiazol-5-yl)phenyl]ethyl]-1-[(2R)-3-methyl-2-{3-[4-({4-[(1r,3r)-3-(4-{[(3S)-1-[3-amino-6-(2-hydroxyphenyl)pyridazin-4-yl]pyrrolidin-3-yl]oxy}piperidin-1-yl)cyclobutoxy]piperidin-1-yl}methyl)piperidin-1-yl]-1,2-oxazol-5-yl}butanoyl]pyrrolidine-2-carboxamide]",< 2.5,> 75
"CC(C)[C@@H](C(=O)N1C[C@H](O)C[C@H]1C(=O)N[C@@H](C)c1ccc(C#N)cc1)c1cc(N2CCC(CN3CCC(O[C@H]4C[C@H](N5CCC(C(C)n6cc(C#Cc7cc(-c8ccccc8O)nnc7N)cn6)CC5)C4)CC3)CC2)no1 (stereo partly drawn) [Compound 78, (2S,4R)-N-[(1S)-1-(4-cyanophenyl)ethyl]-4-hydroxy-1-[(2R)-3-methyl-2-{3-[4-({4-[(1r,3r)-3-{4-[1-(4-{2-[3-amino-6-(2-hydroxyphenyl)pyridazin-4-yl]ethynyl}-1H-pyrazol-1-yl)ethyl]piperidin-1-yl}cyclobutoxy]piperidin-1-yl}methyl)piperidin-1-yl]-1,2-oxazol-5-yl}butanoyl]pyrrolidine-2-carboxamide]",2.5 to 10,> 75
"Cc1ncsc1-c1ccc([C@H](C)NC(=O)[C@@H]2C[C@@H](O)CN2C(=O)[C@H](c2cc(N3CCC(O[C@H]4CC[C@@H](Oc5cc(N6C7CCC6CN(c6cc(-c8ccccc8O)nnc6N)C7)ccn5)CC4)CC3)no2)C(C)C)cc1 [Compound 79, (2S,4R)-4-hydroxy-N-[(1S)-1-[4-(4-methyl-1,3-thiazol-5-yl)phenyl]ethyl]-1-[(2S)-3-methyl-2-[3-(4-{[(1s,4s)-4-[(4-{3-[3-amino-6-(2-hydroxyphenyl)pyridazin-4-yl]-3,8-diazabicyclo[3.2.1]octan-8-yl}pyridin-2-yl)oxy]cyclohexyl]oxy}piperidin-1-yl)-1,2-oxazol-5-yl]butanoyl]pyrrolidine-2-carboxamide]",≥ 30,–
"Cc1ncsc1-c1ccc([C@H](C)NC(=O)[C@@H]2C[C@@H](O)CN2C(=O)[C@@H](c2cc(N3CCC(O[C@H]4CC[C@@H](Oc5cc(N6C7CCC6CN(c6cc(-c8ccccc8O)nnc6N)C7)ccn5)CC4)CC3)no2)C(C)C)cc1 [Compound 80, (2S,4R)-4-hydroxy-N-[(1S)-1-[4-(4-methyl-1,3-thiazol-5-yl)phenyl]ethyl]-1-[(2R)-3-methyl-2-[3-(4-{[(1s,4s)-4-[(4-{3-[3-amino-6-(2-hydroxyphenyl)pyridazin-4-yl]-3,8-diazabicyclo[3.2.1]octan-8-yl}pyridin-2-yl)oxy]cyclohexyl]oxy}piperidin-1-yl)-1,2-oxazol-5-yl]butanoyl]pyrrolidine-2-carboxamide]",< 2.5,> 75
"Cc1ncsc1-c1ccc([C@H](C)NC(=O)[C@@H]2C[C@@H](O)CN2C(=O)[C@@H](c2cc(OCCN3CCC(O[C@H]4C[C@H](OC(=O)N5CCN(c6cc(-c7ccccc7O)nnc6N)CC5)C4)CC3)no2)C(C)C)cc1 [Compound 81, (1r,3r)-3-({1-[2-({5-[(2R)-1-[(2S,4R)-4-hydroxy-2-{[(1S)-1-[4-(4-methyl-1,3-thiazol-5-yl)phenyl]ethyl]carbamoyl}pyrrolidin-1-yl]-3-methyl-1-oxobutan-2-yl]-1,2-oxazol-3-yl}oxy)ethyl]piperidin-4-yl}oxy)cyclobutyl 4-[3-amino-6-(2-hydroxyphenyl)pyridazin-4-yl]piperazine-1-carboxylate]",< 2.5,> 75
"CC(C)[C@H](C(=O)N1C[C@H](O)C[C@H]1C(=O)N[C@@H](C)c1ccc(-c2scnc2C#CCOCCOCCOCCOCCOc2cc(N3C4CCC3CN(c3cc(-c5ccccc5O)nnc3N)C4)ccn2)cc1)N1Cc2ccccc2C1=O [Compound 82, (2S,4R)-N-[(1S)-1-[4-(4-{1-[(4-{3-[3-amino-6-(2-hydroxyphenyl)pyridazin-4-yl]-3,8-diazabicyclo[3.2.1]octan-8-yl}pyridin-2-yl)oxy]-3,6,9,12-tetraoxapentadec-14-yn-15-yl}-1,3-thiazol-5-yl)phenyl]ethyl]-4-hydroxy-1-[(2R)-3-methyl-2-(1-oxo-2,3-dihydro-1H-isoindol-2-yl)butanoyl]pyrrolidine-2-carboxamide]",≥ 30,–
"CC(C)[C@@H](C(=O)N1C[C@H](O)C[C@H]1C(=O)N[C@@H](C)c1ccc(-c2scnc2C#CCOCCOCCOCCOCCOc2cc(N3C4CCC3CN(c3cc(-c5ccccc5O)nnc3N)C4)ccn2)cc1)N1Cc2ccccc2C1=O [Compound 83, (2S,4R)-N-[(1S)-1-[4-(4-{1-[(4-{3-[3-amino-6-(2-hydroxyphenyl)pyridazin-4-yl]-3,8-diazabicyclo[3.2.1]octan-8-yl}pyridin-2-yl)oxy]-3,6,9,12-tetraoxapentadec-14-yn-15-yl}-1,3-thiazol-5-yl)phenyl]ethyl]-4-hydroxy-1-[(2S)-3-methyl-2-(1-oxo-2,3-dihydro-1H-isoindol-2-yl)butanoyl]pyrrolidine-2-carboxamide]",≥ 30,–
"CC(C)[C@@H](C(=O)N1C[C@H](O)C[C@H]1C(=O)N[C@@H](C)c1ccc(-c2ccnn2C)cc1)c1cc(N2CCC(CN3CCC(O[C@H]4C[C@H](N5CCC(C(C)n6ncc(C#Cc7cc(-c8ccccc8O)nnc7N)c6F)CC5)C4)CC3)CC2)no1 (stereo partly drawn) [Compound 84, (2S,4R)-4-hydroxy-N-[(1S)-1-[4-(1-methyl-1H-pyrazol-5-yl)phenyl]ethyl]-1-[(2R)-3-methyl-2-{3-[4-({4-[(1r,3r)-3-{4-[1-(4-{2-[3-amino-6-(2-hydroxyphenyl)pyridazin-4-yl]ethynyl}-5-fluoro-1H-pyrazol-1-yl)ethyl]piperidin-1-yl}cyclobutoxy]piperidin-1-yl}methyl)piperidin-1-yl]-1,2-oxazol-5-yl}butanoyl]pyrrolidine-2-carboxamide]",< 2.5,> 75
"Cc1ncsc1-c1ccc([C@H](C)NC(=O)[C@@H]2C[C@@H](O)CN2C(=O)[C@@H](c2cc(N3CCC(CN4CCC(O[C@H]5C[C@H](N6CCC(C(C)c7cn(-c8cc(-c9ccccc9O)nnc8N)cn7)CC6)C5)CC4)CC3)no2)C(C)C)cc1 (stereo partly drawn) [Compound 85, (2S,4R)-4-hydroxy-N-[(1S)-1-[4-(4-methyl-1,3-thiazol-5-yl)phenyl]ethyl]-1-[(2R)-3-methyl-2-{3-[4-({4-[(1r,3r)-3-[4-(1-{1-[3-amino-6-(2-hydroxyphenyl)pyridazin-4-yl]-1H-imidazol-4-yl}ethyl)piperidin-1-yl]cyclobutoxy]piperidin-1-yl}methyl)piperidin-1-yl]-1,2-oxazol-5-yl}butanoyl]pyrrolidine-2-carboxamide]",≥ 30,–
CC(C)[C@H](C(=O)N1C[C@H](O)C[C@H]1C(=O)N[C@@H](C)c1ccc(-c2scnc2C#CCOCCOCCOc2cc(N3C4CCC3CN(c3cc(-c5ccccc5O)nnc3N)C4)ccn2)cc1)N1Cc2ccccc2C1=O [Compound 86],2.5 to 10,> 75
"Cc1ncsc1-c1ccc([C@H](C)NC(=O)[C@@H]2C[C@@H](O)CN2C(=O)[C@@H](c2cc(N3CCC(CN4CCC5(CC4)CC(N4CCO[C@H](C(C)n6cc(-c7cc(-c8ccccc8O)nnc7N)cn6)C4)C5)CC3)no2)C(C)C)cc1 (stereo partly drawn) [Compound 88, (2S,4R)-1-[(2R)-2-{3-[4-({2-[(2S)-2-(1-(4-[3-amino-6-(2-hydroxyphenyl)pyridazin-4-yl]-1H-pyrazol-1-yl}ethyl)morpholin-4-yl]-7-azaspiro[3.5]nonan-7-yl}methyl)piperidin-1-yl]-1,2-oxazol-5-yl}-3-methylbutanoyl]-4-hydroxy-N-[(1S)-1-[4-(4-methyl-1,3-thiazol-5-yl)phenyl]ethyl]pyrrolidine-2-carboxamide]",< 2.5,> 75
